≈ marks a conversion by molar mass, not a printed value.
Legend:
[1] = system: NALM-6 human leukemia cells; assay: MTT cytotoxicity assay, NALM-6; assay type: cell-based; settings: for ED50 Nalm6: Table 4, individual lead compounds; for relative cytotoxic activity: ranking among the 21 individual compounds, Nalm6, MTT
Procedure: Stage (4): deconvolution and re-synthesis were guided by an iterative screening procedure during which the cytotoxic anti-cancer activities of the individual sub-libraries were measured against the human leukemia cell lines NALM-6 and MOLT-3 using MTT assays. […] However, this is not always true when even-splitting was not possible or some special consideration. […] Another special example is the small 10-member sublibrary CL2.
(§1) The cytotoxicity assay of various CL2 compounds against human tumor cell lines was performed using the MTT (3-[4,5-dimethylthiazol-2-yl]-2,5-diphenyl tetrazolium bromide) assay (Boehringer Mannheim Corp., Indianapolis, Ind.). Briefly, exponentially growing tumor cells were seeded into a 96-well plate at a density of 2.5×10^4 cells/well and incubated for 36 hours at 37° C. prior to compound exposure. On the day of treatment, culture medium was carefully aspirated from the wells and replaced with fresh medium containing the CL2 compounds at concentrations ranging from 0.0 to 100 μM. Triplicate wells were used for each treatment.
(§2) Human cell lines were obtained from American Type Culture Collection (Rockville, Md.) and maintained as a continuous cell line in Dulbecco's modified Eagles' medium supplemented with 10% fetal bovine serum and antibiotics. Cells used in this study include human leukemia cells (NALM-6 and MOLT-3).
(§3) The cells were incubated with the various compounds for 24-36 hours at 37° C. in a humidified 5% CO2 atmosphere. To each well, 10 μl of MTT (0.5 mg/ml final concentration) was added and the plates were incubated at 37° C. for 4 hours to allow MTT to form formazan crystals by reacting with metabolically active cells. The formazan crystals were solubilized overnight at 37° C. in a solution containing 10% SDS in 0.01 M HCl. The absorbance of each well was measured in a microplate reader (Labsystems) at 540 nm and a reference wavelength of 690 nm. To translate the OD540 values into the number of live cells in each well, the OD540 values were compared to those on standard OD540-versus-cell number curves generated for each cell line. The percent survival was calculated using the formula:
(§4) % Survival=live cell number [test]/live cell number [control]×100
(§5) The IC50 values were calculated by non-linear regression analysis.

[2] = system: human tumor cell lines; assay: MTT assays, cell line not given; assay type: cell-based; settings: cell line not stated; for relative cytotoxic / biological activity: MTT; for IC50: Homo sapiens
Procedure: as §1, §2, §3, §4, §5

[3] = compound stability remark in Table 1; assay type: physicochemical

S=C(NC(c1ccccc1)(c1ccccc1)c1ccccc1)NC(c1ccccc1)(c1ccccc1)c1ccccc1 [Compound L34A4A4]
ED50 Nalm6 [1]: 30 µg/mL (≈ 53.5 µM)

S=C(NC(c1ccccc1)c1ccccc1)NC(c1ccccc1)c1ccccc1 [Compound L34A3A3]
ED50 Nalm6 [1]: >100 µg/mL

CC(NC(=S)NC(C)c1ccccc1)c1ccccc1 (stereo not drawn) [Compound L34A2A2]
ED50 Nalm6 [1]: 50 µg/mL (≈ 176 µM)

COc1ccc(OC)c(CCNC(=S)NCCc2ccccc2OC)c1 [CL12a]
relative cytotoxic / biological activity [2]: most active

Fc1ccc(CCNC(=S)NCCc2ccc(Cl)cc2Cl)cc1 [CL10b]
relative cytotoxic / biological activity [2]: most active

CC(NC(=S)NC(c1ccccc1)(c1ccccc1)c1ccccc1)c1ccccc1 (stereo not drawn) [Compound L34A2A4]
ED50 Nalm6 [1]: 50 µg/mL (≈ 118 µM)

Fc1ccc(CCNC(=S)NCCc2ccc(F)cc2)cc1 [CL2j]
stability (remark in place of IC50) [3]: unstable compound

S=C(NC(Cc1ccccc1)c1ccccc1)NC(Cc1ccccc1)c1ccccc1 (stereo not drawn) [Compound L34A5A5, 1,3-Bis(1,2-diphenylethyl)-2-thiourea]
IC50 [2]: < 10 µg/mL
ED50 Nalm6 [1]: <10 µg/mL
relative cytotoxic activity [1]: most active

CC(NC(=S)NC(c1ccccc1)c1ccccc1)c1ccccc1 (stereo not drawn) [Compound L34A2A3]
ED50 Nalm6 [1]: 50 µg/mL (≈ 144 µM)

COc1ccccc1CCNC(=S)NCCc1ccc(Cl)cc1Cl [CL12b]
relative cytotoxic / biological activity [2]: most active

S=C(NC(Cc1ccccc1)c1ccccc1)NC(c1ccccc1)c1ccccc1 (stereo not drawn) [Compound L34A3A5, 1-(1,2-Diphenylethyl)-3-(diphenylmethyl)-2-thiourea]
IC50 [2]: < 10 µg/mL
ED50 Nalm6 [1]: <10 µg/mL
relative cytotoxic activity [1]: most active
